Where two headings read alike, the source gives them in different places.
Assays:
MAYV [1] = assay: Antiviral CPE reduction assay; type: cell-based, Mayaro virus (MAYV) strain TC625; conditions: for Activity against MAYV (inhibition of MAYV-induced CPE): MOI 0.01
in vitro = conditions: African green monkey
MAYV [2] = assay: Delay of treatment assay; type: cell-based, Mayaro virus (MAYV) strain TC625; conditions: for reduction of intracellular RNA by time of addition: EIDD-1931 25 µM, favipiravir 300 µM, suramin 500 µM, qRT-PCR
Vero cells = assay: Cytotoxicity assay on uninfected cells
MAYV [3] = type: cell-based, Mayaro virus (MAYV) strain TC625; conditions: for decrease in relative infectivity (ratio infectious virus vs. viral RNA): supernatant
[4] = Cytotoxicity assay on uninfected cells; conditions: African green monkey
CHIKV = conditions: against CHIKV; cited from earlier work
MAYV [5] = conditions: virus yield assay, cited from earlier work

SMILES	EC50 (MAYV [1]; Mayaro virus, Vero, 72 h)	Activity against MAYV (inhibition of MAYV-induced CPE) (MAYV [1]; Vero cells)	reduction of intracellular RNA by time of addition (MAYV [2]; […], 10 h pi)	decrease in infectious virus (MAYV [3])	reduction in viral RNA and infectious virus content with increasing concentrations (MAYV [3])	CC50 at 3 days [4]	other results
CCC(CC)COC(=O)[C@H](C)N[P@](=O)(OC[C@H]1O[C@@](C#N)(c2ccc3c(N)ncnn23)[C@H](O)[C@@H]1O)Oc1ccccc1 [Remdesivir]	> 100 µM	not able to inhibit MAYV					CC50 at 3 days (in vitro): 297 ± 101 µM
O=c1nc(NO)ccn1[C@@H]1O[C@H](CO)[C@@H](O)[C@H]1O [EIDD-1931, β-D-N^4-hydroxycytidine]			still resulted in a reduction when added until 2 h pi	~ 8 log10	dose-dependent reduction		activity on infectious virus (MAYV [2]; 25 µM, added at 6 h pi): modest activity; decrease in infectious virus (MAYV [2]; 25 µM, added until 4 h pi, […], 10 h pi): 2–3 log10; CC50 (Vero cells; uninfected Vero cells, day 3, microscopically or MTS/PMS): > 100 µM; inhibitory effect in virus yield assay (MAYV [3]; 3.1 µM): inhibitory effect was still observed; decrease in relative infectivity (ratio infectious virus vs. viral RNA) (MAYV [3]; starting from 6 µM): ~ 1000 fold; EC50 (MAYV [1]; Vero cells, MAYV MOI 0.01, day 3 pi, MTS/PMS read-out): 1.6 ± 0.5 µM
C[C@@]1(O)[C@H](O)[C@@H](CO)O[C@H]1n1ccc2c(N)ncnc21 [7DMA, 7-Deaza-2′-C-methyladenosine]	> 60 µM	not able to inhibit MAYV				> 600 µM	
C[C@@]1(O)[C@H](O)[C@@H](CO)O[C@H]1n1ccc(N)nc1=O [2’CMC, 2′-C-methylcytidine]	> 20 µM	not able to inhibit MAYV				167 ± 7 µM	
Cc1ccc(C(=O)Nc2ccc(S(=O)(=O)O)c3cc(S(=O)(=O)O)cc(S(=O)(=O)O)c23)cc1NC(=O)c1cccc(NC(=O)Nc2cccc(C(=O)Nc3cc(C(=O)Nc4ccc(S(=O)(=O)O)c5cc(S(=O)(=O)O)cc(S(=O)(=O)O)c45)ccc3C)c2)c1 [Suramin]	124 ± 26 µM		only when added at early time points (2 h prior to infection and 0 h pi)	~ 5 log10	dose-dependent reduction		decrease of infectious virus titers (MAYV [2]): ~ −2 log10; relative infectivity of MAYV (MAYV [3]; all concentrations with the exception of the highest tested (500 µM)): not affected; CC50 at 3 days (in vitro): > 2000 µM
NC(=O)c1nc(F)c[nH]c1=O [Favipiravir]	79 ± 4 µM		only when added at early time points (2 h prior to infection and 0 h pi)	~ 8 log10	dose-dependent reduction	2840 ± 86 µM	reduction of viral titers (MAYV [2]; 300 µM, added until 2 h pi, […], 10 h pi): 2–3 log10; inhibitory effect in virus yield assay (MAYV [3]; 75 µM): inhibitory effect was still observed; decrease in relative infectivity (ratio infectious virus vs. viral RNA) (MAYV [3]; starting from 75 µM): ~ 100 fold
CCOC(=O)c1c(CSc2ccccc2)n(C)c2cc(Br)c(O)c(CN(C)C)c12 [Arbidol]	> 60 µM	did not show activity against MAYV				> 100 µM	EC50 (CHIKV): 12 µM
Nc1ncnc2c([C@@H]3N[C@H](CO)[C@@H](O)[C@H]3O)c[nH]c12 [Galidesivir]	> 100 µM	not able to inhibit MAYV				238 ± 36 µM	
NC(=O)c1ncn([C@@H]2O[C@H](CO)[C@@H](O)[C@H]2O)n1 [Ribavirin, 1-(β-D-ribofuranosyl)-1H-1,2,4-triazole-3-carboxamide]	> 200 µM	not active against MAYV				250 ± 81 µM	signs of toxicity determined microscopically (Vero cells; concentrations higher than 200 µM): signs of toxicity were determined microscopically at higher concentrations; blocking MAYV infectivity (MAYV [3]): not effective; EC50 (MAYV [5]; strain TR4675, MOI 0.05): 62.5 µM; EC50 (MAYV [5]; strain TR4675, MOI 0.1): 255 µM
CCN(CC)CCCC(C)Nc1ccnc2cc(Cl)ccc12 (centres unmarked) [Chloroquine]	> 200 µM	did not show activity against MAYV					EC50 (CHIKV): ~10 µM
